Measured values: PubChem BioAssay (NCI)
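The compound was tested at five concentrations on cells cultured in 96-well plates, with a 48-hour exposure period. GI50 is the concentration that inhibits growth by half. At the TGI there is no net growth.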

How the values were obtained:
Test in all cases: NCI anticancer screen, dose series, 48 h
[1] = system: UO-31 renal
[2] = system: RPMI-8226 leukemia
[3] = system: SF-268 CNS
[4] = system: IGROV1 ovarian
[5] = system: MOLT-4 leukemia
[6] = system: LOX IMVI melanoma
[7] = system: UACC-257 melanoma
[8] = system: HL-60(TB) leukemia
[9] = system: UACC-62 melanoma
[10] = system: CAKI-1 renal
[11] = system: MCF7 breast
[12] = system: OVCAR-5 ovarian
[13] = system: HCC-2998 colon
[14] = system: A549 NSCLC
[15] = system: A498 renal
[16] = system: MALME-3M melanoma
[17] = system: OVCAR-3 ovarian
[18] = system: SK-OV-3 ovarian
[19] = system: HCT-116 colon
[20] = system: 786-0 renal
[21] = system: NCI-H460 lung
[22] = system: SK-MEL-5 melanoma
[23] = system: OVCAR-8 ovarian
[24] = system: PC-3 prostate
[25] = system: SW-620 colon
[26] = system: ACHN renal
[27] = system: SR leukemia
[28] = system: HCT-15 colon
[29] = system: T-47D breast
[30] = system: SK-MEL-28 melanoma
[31] = system: SNB-19 CNS
[32] = system: SF-295 CNS
[33] = system: M14 melanoma
[34] = system: K-562 leukemia
[35] = system: NCI/ADR-RES ovarian
[36] = system: BT-549 breast
[37] = system: MDA-MB-231 breast
[38] = system: SNB-75 CNS
[39] = system: HOP-92 NSCLC
[40] = system: EKVX NSCLC
[41] = system: KM12 colon
[42] = system: RXF 393 renal
[43] = system: OVCAR-4 ovarian
[44] = system: TK-10 renal
[45] = system: NCI-H226 lung
[46] = system: MDA-MB-435
[47] = system: DU-145 prostate
[48] = system: SN12C renal
[49] = system: SK-MEL-2 melanoma
[50] = system: U251 CNS
[51] = system: CCRF-CEM leukemia
[52] = system: SF-539 CNS
[53] = system: NCI-H522 lung
[54] = system: HOP-62 NSCLC
[55] = system: COLO 205 colon
[56] = system: HS 578T breast
[57] = system: NCI-H23 lung
[58] = system: HT29 colon

Work on `Nc1nc(-c2ccc(Cl)cc2)cc(-c2ccc(Cl)cc2)c1-c1nc2ccccc2o1` yielded a GI50 [1] of 14.8 µM, a TGI [1] of 29.9 µM and a GI50 [2] of 13.7 µM. It also gave a TGI [2] of 28.3 µM, a GI50 [3] of 14.5 µM and a TGI [3] of 34.1 µM. The GI50 [4] was 16.1 µM, the TGI [4] was 34.3 µM and the GI50 [5] was 12.1 µM. For the same compound, the TGI [5] was 27.4 µM, the GI50 [6] was 18.7 µM and the TGI [6] was 36.5 µM. For the same compound, the GI50 [7] was 18.4 µM, the TGI [7] was 37.8 µM and the GI50 [8] was 17.9 µM. The TGI [8] was 37.2 µM, the GI50 [9] was 18.9 µM and the TGI [9] was 34.2 µM. It also gave a GI50 [10] of 20 µM, a TGI [10] of 35.9 µM and a GI50 [11] of 10.6 µM. For the same compound, the TGI [11] was 35.7 µM, the GI50 [12] was 20.7 µM and the TGI [12] was 39.1 µM. For the same compound, the GI50 [13] was 16.9 µM, the TGI [13] was 33.3 µM and the GI50 [14] was 15.5 µM. The TGI [14] was 40.7 µM, the GI50 [15] was 19.6 µM and the TGI [15] was 34.6 µM. The GI50 [16] was 14.4 µM, the TGI [16] was 29.9 µM and the GI50 [17] was 18.6 µM. The TGI [17] was 35.5 µM, the GI50 [18] was 22.4 µM and the TGI [18] was 41 µM. It also gave a GI50 [19] of 14.8 µM, a TGI [19] of 30.5 µM and a GI50 [20] of 17.9 µM. It also gave a TGI [20] of 36.4 µM, a GI50 [21] of 16.8 µM and a TGI [21] of 39.6 µM. It also gave a GI50 [22] of 15.4 µM, a TGI [22] of 29.9 µM and a GI50 [23] of 18.4 µM. For the same compound, the TGI [23] was 36.3 µM, the GI50 [24] was 13.2 µM and the TGI [24] was 27.1 µM. The GI50 [25] was 17.5 µM, the TGI [25] was 33.3 µM and the GI50 [26] was 17.4 µM. For the same compound, the TGI [26] was 33.2 µM, the GI50 [27] was 14.3 µM and the TGI [27] was 30.5 µM. The GI50 [28] was 17.2 µM, the TGI [28] was 34.8 µM and the GI50 [29] was 13.4 µM. It also gave a TGI [29] of 29.6 µM, a GI50 [30] of 17.4 µM and a TGI [30] of 34.3 µM. The GI50 [31] was 19.6 µM, the TGI [31] was 41.4 µM and the GI50 [32] was 21.7 µM. The TGI [32] was 40.3 µM, the GI50 [33] was 17.4 µM and the TGI [33] was 34.4 µM. It also gave a GI50 [34] of 13.7 µM, a TGI [34] of 52.3 µM and a GI50 [35] of 14.5 µM. For the same compound, the TGI [35] was 30.9 µM, the GI50 [36] was 18.1 µM and the TGI [36] was 33.4 µM. The GI50 [37] was 15.8 µM, the TGI [37] was 31.3 µM and the GI50 [38] was 15 µM. It also gave a TGI [38] of 30 µM, a GI50 [39] of 6.24 µM and a TGI [39] of 21.2 µM. It also gave a GI50 [40] of 16.3 µM, a TGI [40] of 31.4 µM and a GI50 [41] of 12.2 µM. The TGI [41] was 27.2 µM, the GI50 [42] was 14.1 µM and the TGI [42] was 33.5 µM. It also gave a GI50 [43] of 18.5 µM, a TGI [43] of 35.5 µM and a GI50 [44] of 20 µM. The TGI [44] was 41.9 µM, the GI50 [45] was 19.1 µM and the TGI [45] was 34.9 µM. The GI50 [46] was 18.3 µM, the TGI [46] was 36.1 µM and the GI50 [47] was 17.2 µM. For the same compound, the TGI [47] was 36.6 µM, the GI50 [48] was 12.4 µM and the TGI [48] was 26.1 µM. For the same compound, the GI50 [49] was 16.6 µM, the TGI [49] was 33.4 µM and the GI50 [50] was 18.5 µM. The TGI [50] was 36 µM, the GI50 [51] was 11.4 µM and the TGI [51] was 34.1 µM. The GI50 [52] was 19.9 µM, the TGI [52] was 35.7 µM and the GI50 [53] was 15 µM. For the same compound, the TGI [53] was 30.5 µM, the GI50 [54] was 13 µM and the TGI [54] was 27.1 µM. For the same compound, the GI50 [55] was 21 µM, the TGI [55] was 39.5 µM and the GI50 [56] was 23.5 µM. For the same compound, the TGI [56] was 53.1 µM, the GI50 [57] was 17.8 µM and the TGI [57] was 37.3 µM. For the same compound, the GI50 [58] was 11.1 µM and the TGI [58] was 36.1 µM.
